Reference: the supplement of paper PMC10949913

How the values were obtained:
Assay in all cases: area under concentration-response curve (viability) (AUC (a.u.)); higher = less active
Conditions in all cases: 48 h
CU-ACC1 = test system: CU-ACC1
How it was run: (§1)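 After 48 h of treatment with 23 nL of each library compound at 11 concentrations, three adrenocortical carcinoma cell lines in 1,536-well plates (500–1,000 cells/well, 5 µL medium) were given CellTiter-Glo for 15 minutes at room temperature. Luminescence was then read and normalised per plate to vehicle and empty-well controls. AC50 and area under the curve were drawn from fitted concentration-response curves of inhibitory or non-responding classes only.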

NCI-H295R = test system: NCI-H295R
How it was run: as §1

CU-ACC2 = test system: CU-ACC2
How it was run: as §1

Row | Compound | area under concentration-response curve (CU-ACC1) | area under concentration-response curve (NCI-H295R) | area under concentration-response curve (CU-ACC2)
1 | CN1CCN(CC1)C\2=C\3/C=C(/C)SC3=N/C4=CC=CC=C4N2 | 556 | 555 | 513
2 | Cn1c(CNc2ccc(C(=N)N)cc2)nc2cc(C(=O)N(CCC(=O)O)c3ccccn3)ccc21 | 715 | 834 | 929
3 | CNC(=O)c1cccc(-c2ccc3c(N4CCOC[C@@H]4C)nc(N4CCOC[C@@H]4C)nc3n2)c1 | 452 | 453 | 545
4 | COc1ccc(/C=C/C(=O)Nc2ccccc2C(=O)O)cc1OC | 439 | 496 | 517
5 | COc1ccc(-n2cnc3cc(C(=O)N4CCCCC4)ccc32)cc1 | 502 | 479 | 534
6 | C[C@@H]1[C@H](O)[C@@H](C)/C=C/C=C/C=C/C=C/C=C/C=C/C=C/[C@H](O[C@@H]2O[C@H](C)[C@@H](O)[C@H](N)[C@@H]2O)C[C@@H]2O[C@](O)(C[C@@H](O)C[C@@H](O)[C@H](O)CC[C@@H](O)C[C@@H](O)CC(=O)O[C@H]1C)C[C@H](O)[C@H]2C(=O)O | 550 | 595 | 633
7 | O=C(NCC(=O)N1CC[C@H](NC2CCC(O)(c3ccc(-c4ncccn4)cn3)CC2)C1)c1cccc(C(F)(F)F)c1 (stereo not given in full) | 554 | 560 | 606
8 | NCCc1c[nH]cn1 | 416 | 548 | 605
9 | C[N+]1(C)[C@@H]2CC(OC(=O)[C@H](CO)c3ccccc3)C[C@H]1[C@@H]1O[C@@H]12 (stereo not given in full) | 531 | 500 | 556
10 | COC1=CC=C2[C@H]3CC[C@]4(C)[C@H](CC[C@H]4[C@@H]3CCC2=C1)NCCCCCCN5C(=O)\C=C/C5=O | 496 | 517 | 460
11 | NCCCCCC(=O)O | 509 | 540 | 585
12 | N#CC1(c2ccc(NC(=O)c3cccnc3NCc3ccncc3)cc2)CCCC1 | 547 | 545 | 531
13 | O=C(CCc1ccc(O)cc1)c1c(O)cc(O)cc1O | 531 | 585 | 653
14 | COc1ccc(CCC(=O)Nc2nc3ccc(Cl)cc3s2)cc1OC | 575 | 563 | 600
15 | COc1cc(C[C@@H](CO)[C@H](CO)Cc2ccc(O)c(OC)c2)ccc1O | 534 | 517 | 575
16 | CC(=O)NCCC(=O)N[C@@H](CCC(N)=O)C(=O)N[C@@H](CO)C(=O)N[C@@H](CCC(N)=O)C(=O)N[C@@H](CCC(N)=O)C(=O)N[C@H](C(=O)N[C@@H](Cc1ccccc1)C(=O)N[C@]1(C)CCCCCC/C=C\CCC[C@@](C)(C(=O)N[C@@H](CCC(N)=O)C(=O)N[C@@H](CC(N)=O)C(N)=O)NC(=O)[C@H](CC(C)C)NC(=O)[C@H](CC(C)C)NC(=O)[C@@H](CCCNC(=N)N)NC(=O)[C@H](Cc2c[nH]c3ccccc23)NC(=O)[C@H](CC(C)C)NC(=O)[C@H](CC(N)=O)NC1=O)[C@H](C)O | 425 | 546 | 575
17 | FC1=CC=C(C=C1)N2/C=C\C=C(C(=O)NC3=CC=C(OC4=C5C=C[NH]C5=NC=C4)C(=C3)F)/C2=O | 588 | 535 | 616
18 | COC1=CC=C(Cl)C=C1\C2=C\C(=O)NC(=S)N2CC(N)=O | 448 | 556 | 580
19 | Cc1cccc(-c2nn(C(=S)Nc3ccccc3)cc2-c2ccnc3ccccc23)n1 | 506 | 470 | 590
20 | O=C(O)C(=O)c1cn(Cc2ccccc2)c2ccc(-c3ccc(OC(F)(F)F)cc3)cc12 | 474 | 489 | 489
21 | N#Cc1ccnc(N2C(=O)CC[C@H]2C(=O)N(c2cncc(F)c2)[C@H](C(=O)NC2CC(F)(F)C2)c2ccccc2Cl)c1 | 486 | 560 | 613
22 | COc1ccc([C@@H]2Sc3ccccc3N(CCN(C)C)C(=O)[C@@H]2OC(C)=O)cc1 | 473 | 533 | 576
23 | COc1nc(C)nc(Cl)c1NC1=NCCN1 | 468 | 504 | 436

Row | Compound | area under concentration-response curve (CU-ACC1) | area under concentration-response curve (NCI-H295R) | area under concentration-response curve (CU-ACC2)
24 | COc1nc(C)cnc1N[S+](=O)([O-])c1cccnc1-c1ccc(-c2nnco2)cc1 | 520 | 509 | 600
25 | OCCC#Cc1nc(-c2ccc(F)cc2)c(-c2ccncc2)n1CCCc1ccccc1 | 513 | 475 | 536
26 | Cc1c(Cl)cccc1[S+](=O)([O-])Nc1nc(CCN2CCOCC2=O)cs1 | 483 | 520 | 583
27 | C1CN\2C[C@@H](\N=C2S1)C3=CC=CC=C3 | 506 | 575 | 626
28 | COC1=C(F)C=C\2C(=C1)\N=C/3NNC(=C3\N=C2C4=CC=CC=C4Cl)/C | 538 | 552 | 528
29 | CC(C(=O)O)c1ccc(-c2ccccc2)c(F)c1 (stereo not given) | 469 | 470 | 479
30 | O=C(/C=C/c1ccc(/C=C/C(=O)Nc2ccc(C3=NCCN3)cc2)cc1)Nc1ccc(C2=NCCN2)cc1 | 635 | 613 | 610
31 | CC(C)C(C)/C=C/C(C)C1CCC2C3=CC=C4CC(O)CCC4(C)C3CCC21C (stereo not given) | 521 | 597 | 636
32 | CCc1c(C(=O)C(N)=O)c2c(OCC(=O)O)cccc2n1Cc1ccccc1 | 572 | 550 | 599
33 | C[C@@H]1CCN(C(=O)N2CCCC2)C[C@@H]1N(C)c1ncnc2[nH]ccc12 | 477 | 505 | 562
34 | CN(C)C1=CC(=CC=C1)C\2=C\3C(=O)N(NC3=C/C(=O)N2C)C4=CC=CC=C4Cl | 513 | 533 | 512
35 | Cc1ccsc1C(=CCCN1CCC[C@@H](C(=O)O)C1)c1sccc1C | 488 | 541 | 593
36 | CCOC(=O)C(C)OC1=CC=CC2=C1\C=C/N(CC(=O)NC3=CC=C4OCCOC4=C3)C2=O (stereo not given) | 505 | 538 | 602
37 | COc1cc2ncnc(Nc3ccc(O)c(Br)c3)c2cc1OC | 479 | 528 | 602
38 | FC(F)(F)c1ccc(/C=C/c2nc(COc3ccc(CCCCn4ccnn4)cc3)co2)cc1 | 265 | 531 | 596
39 | O=P(O)(O)C(O)(Cc1cccnc1)P(=O)(O)[O][Na] (stereo not given) | 508 | 533 | 573
40 | Cc1cccc(-c2[nH]c(CNc3ccccc3F)nc2-c2ccc3ncnn3c2)n1 | 483 | 463 | 510
41 | NCC1(CC(=O)O)CCCCC1 | 315 | 412 | 403
42 | Cc1cnc(-c2cc(N3CCN(C(=O)CC[S+](C)(=O)[O-])CC3)ncc2Cl)c(C)c1 | 536 | 551 | 534
43 | C[C@@H]1CN[C@H]2[C@@H](C)[C@@]\3(CC[C@H]\4[C@@H]5C/C=C6/C[C@@H](O)CC[C@]6(C)[C@H]5CC4=C3C)O[C@@H]2C1 | 463 | 511 | 433
44 | COCC(=O)NC/C=C/c1ccc2ncnc(Nc3ccc(Oc4ccc(C)nc4)c(C)c3)c2c1 | 522 | 552 | 613
45 | NC1CCC(N[C@@H]2C[C@H]2c2ccccc2)CC1 (stereo not given in full) | 409 | 458 | 487
